Counter-ions that a name gives are not always drawn.

T1 sequence (G1TEI7 1-342): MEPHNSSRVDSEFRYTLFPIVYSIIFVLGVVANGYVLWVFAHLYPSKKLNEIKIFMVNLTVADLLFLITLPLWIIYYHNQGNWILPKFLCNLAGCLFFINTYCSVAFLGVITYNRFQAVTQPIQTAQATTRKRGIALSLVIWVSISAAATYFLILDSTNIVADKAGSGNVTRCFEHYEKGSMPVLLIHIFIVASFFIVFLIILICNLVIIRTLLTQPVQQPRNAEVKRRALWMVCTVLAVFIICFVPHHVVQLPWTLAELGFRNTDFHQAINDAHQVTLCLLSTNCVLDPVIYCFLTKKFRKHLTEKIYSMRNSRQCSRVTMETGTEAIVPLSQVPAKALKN

The first assay concerns the target T1, PAF receptor (Oryctolagus cuniculus, UniProt G1TEI7).
T1 construct: platelet membranes where prepared by centrifugation and washing; tissue Pel-Freez (Rogers, AR) (whole rabbit blood); host or cells: rabbit platelet membranes
As to the kind of experiment: PAF receptor binding assay ([3H]C18-PAF, rabbit platelet membranes). Particulars: inhibition of specific binding of 0.6 nM [3H]C18-PAF to rabbit platelet membranes, 60 min, room temperature; Ki calculated from IC50 by Cheng and Prusoff; read-out: PAF Receptor Binding Activity K1. The protocol: The ability of representative compounds of the present invention to inhibit PAF activity was determined in an in vitro test using the following method.
Citrated whole rabbit blood was obtained from Pel-Freez (Rogers, AR). Rabbit platelets where prepared by centrifugation and washing. The platelets where lysed by freeze-thawing and sonication; platelet membranes where prepared by centrifugation and washing. Final membrane preparations where stored frozen in 10 mM Tris/5 mM MgCl2 /2 mM EDTA (TME buffer, pH 7.0) with 0.25 M sucrose added for membrane stabilization.
The final volume of the assay was 100 μl. The assay was conducted in Millititre-GV™ (Millipore Corp.) filtration plates; incubation time was for 60 minutes at room temperature (22°-23° C.). "Specific binding" was operationally defined as the arithmetic difference between "total binding" of 0.6 nM [^3 H]C18 -PAF (in the absence of added PAF) and "nonspecific binding" (in the presence of 1 μM PAF). After the prescribed incubation, platelet membranes where filtered under vacuum and washed with 1 millilitre of "binding buffer". The filters was dried and removed. The bound radioactivity was quantitated with a Berthold TLC-Linear Analyzer model LB2842.
Experiments where repeated at least once.
As to “3-[Pyridin-3-yl)-7-(6-pyrimid-2-ylindol-3-ylcarbonyl)-1H,3H-pyrrolo[1,2-c]thiazole [Example 74]”, the Ki was 0.084 µM. Take “3(1-Carbamoylamino-pyridin-3-yl)-7-[1-N,N-dimethylcarbamoyl-6-(4-fluorophenyl)indol-3-ylcarbonyl]-1H,3H-pyrrolo[1,2-c]thiazole [Example 77]”: the Ki was 0.1 µM. Consider `COc1ccc(-c2ccc3c(C(=O)c4ccn5c4CSC5c4cccnc4)cn(C(=O)N(C)C)c3c2)cc1` (stereo not drawn) [Example 40, 3-(Pyridin-3-yl)-7-[1-N,N-dimethylcarbamoyl-6-(4-methoxyphenyl)indol-3-ylcarbonyl]-1H,3H-pyrrolo[1,2-c]thiazole], for which the Ki is 0.026 µM. For “3-(Pyridin-3-yl)-7-[1-N-sulfoethylcarbamoyl-6-(4-fluorophenyl)indol- 3-ylcarbonyl]-1H,3H-pyrrolo[1,2-c]thiazole [Example 100]”, the Ki is over 0.3 µM.

Staying with this assay, now noted: read-out: PAF Receptor Binding Activity K1.
`O=C(c1ccn2c1CSC2c1cccnc1)c1cn(C(=O)NCCO)c2cc(-c3ccc(F)cc3)ccc12` (stereo not drawn) [Example 62, 3-(Pyridin-3-yl)-7-[1-N-(2-hydroxyethyl)carbamoyl-6-(4-fluorophenyl)indol-3-ylcarbonyl]-1H,3H-pyrrolo[1,2-c]thiazole]: the Ki amounted to 0.0074 µM. `NNC(=O)n1cc(C(=O)c2ccn3c2CSC3c2cccnc2)c2ccc(-c3ccc(F)cc3)cc21` (stereo not drawn) [Example 69, 3-(Pyridin-3-yl)-7-[1-hydrazinocarbonyl-6-(4-fluorophenyl)indol-3-ylcarbonyl]-1H,3H-pyrrolo[1,2-c]thiazole]: the Ki came out at 0.025 µM.

As for `CN(C)C(=O)n1cc(C(=O)c2ccn3c2CSC3c2cccnc2)c2ccc(-c3ccccc3)cc21` (stereo not drawn) [Example 52, 3-(Pyridin-3-yl)-7-(1-N,N-dimethylcarbamoyl-6-phenylindol-3-ylcarbonyl)-1H,3H-pyrrolo[1,2-c]thiazole Hydrochloride], the Ki was 0.016 µM.

For the molecule `CN(C)C(=O)n1cc(C(=O)c2ccn3c2CSC3c2cccnc2)c2ccccc21` (stereo not drawn) [Example 2, 3-(Pyridin-3-yl)-7-(1-N,N-dimethylcarbamoylindol-3-yl)carbonyl-1H,3H-pyrrolo[1,2-c]thiazole], the Ki worked out at 2 µM.

`COc1cc(-c2ccc3c(C(=O)c4ccn5c4CSC5c4cccnc4)cn(C(=O)N(C)C)c3c2)cc(OC)c1OC` (stereo not drawn) [Example 48, 3-(Pyridin-3-yl)-7-[1-N,N-dimethylcarbamoyl-6-(3,4,5-trimethoxyphenyl)indol-3-ylcarbonyl]-1H,3H-pyrrolo[1,2-c]thiazole]: the Ki turned out to be 0.008 µM.

Regarding `CCNC(=O)n1cc(C(=O)c2ccn3c2CSC3c2cccnc2)c2ccc(-c3ccc(F)cc3)cc21` (stereo not drawn) [Example 99], the Ki amounted to 0.019 µM. Take `CN(C)C(=O)n1cc(C(=O)c2ccn3c2CSC3c2cccnc2)c2ccc(OCc3ccccc3)cc21` (stereo not drawn) [Example 7, 3-(Pyridin-3-yl)-7-(1-N,N-dimethylcarbamoyl-6-phenylmethoxyindol-3-yl)carbonyl-1H,3H-pyrrolo[1,2-c]thiazole]: the Ki was determined as 0.017 µM.

Consider `CNC(=O)n1cc(C(=O)c2ccn3c2CSC3c2cccnc2)c2ccc(-c3ccccc3)cc21` (stereo not drawn) [Example 30, 3-(Pyridin-3-yl)-7-(1-N-methylcarbamoyl-6-phenylindol-3-ylcarbonyl)-1H,3H-pyrrolo[1,2-c]thiazole], for which the Ki was determined as 0.135 µM. Take `CN(CO)C(=O)Cn1cc(C(=O)c2ccn3c2CSC3c2cccnc2)c2ccc(-c3ccc(F)cc3)cc21` (stereo not drawn) [Example 93]: the Ki amounted to 0.0008 µM. `ON=C(c1ccn2c1CSC2c1cccnc1)c1c[nH]c2cc(-c3ccc(F)cc3)ccc12` (stereo not drawn) [Example 83, 3-(Pyridin-3-yl)-7-[6-(4-fluorophenyl)indol-3-ylcarbonyloxime]-1H,3H-pyrrolo[1,2-c]thiazole]: the Ki worked out at 0.0107 µM. Take `COc1ccc(-c2ccc3c(C(=O)c4ccn5c4C(C)(C)SC5c4cccnc4)c[nH]c3c2)cc1` (stereo not drawn) [Example 25, 1,1-Dimethyl-3-(pyridin-3-yl)-7-[6-(4-methoxyphenyl)indol-3-ylcarbonyl]-1H,3H-pyrrolo[1,2-c]thiazole]: the Ki came out at 0.272 µM. In the case of `COc1ccc(-c2ccc3c(C(=O)c4ccn5c4CSC5c4cccnc4)c[nH]c3c2)cc1` (stereo not drawn) [Example 38, 3-(Pyridin-3-yl)-7-[6-(4-methoxyphenyl)indol-3-yl]carbonyl-1H,3H-pyrrolo[1,2-c]thiazole], the Ki was 1 µM. Still for that read-out and setting: the result for `CC1(C)SC(c2cccnc2)n2ccc(C(=O)c3c[nH]c4ccccc34)c21` (stereo not drawn) [Example 17, 1,1-Dimethyl-3-(pyridin-3-yl)-7-(indol-3-ylcarbonyl)-1H,3H-pyrrolo[1,2-c]thiazole] reads 1.2 µM; that for `CN(C)C(=O)n1cc(C(=NNC(N)=O)c2ccn3c2CSC3c2cccnc2)c2ccc(-c3ccc(F)cc3)cc21` (stereo not drawn) [Example 106, 3-(pyridin-3-yl)-7-[1-N,N-dimethylcarbamoyl-6-(4-fluorophenyl)indol-3-ylcarbonylsemicarbazide]-1H,3H-pyrrolo[1,2-c]thiazole], 0.008 µM; that for `NC(=O)n1cc(C(=O)c2ccn3c2CSC3c2cccnc2)c2ccc(OCc3ccccc3)cc21` (stereo not drawn) [Example 37, 3-(Pyridin-3-yl)-7-(1-carbamoyl-6-phenylmethoxyindol-3-ylcarbonyl)-1H,3H-pyrrolo[1,2-c]thiazole], 0.01 µM. Consider `CN(C)C(=O)n1cc(C(=O)c2ccn3c2C[S+]([O-])C3c2ccc[n+]([O-])c2)c2ccc(-c3ccc(F)cc3)cc21` (stereo not drawn) [Example 103, 2-Oxide-3-(1-oxide-pyridin-3-yl)-7-[1-N,N-dimethylcarbamoyl-6-(4-fluorophenyl)indole-3-ylcarbonyl]-1H,3H-pyrrolo[1,2-c]thiazole], for which the Ki is 0.085 µM. As to `O=C(c1ccn2c1CSC2c1ccc[n+]([O-])c1)c1cn(S(=O)(=O)c2ccccc2)c2cc(-c3ccc(F)cc3)ccc12` (stereo not drawn) [Example 73, 3-(1 -Oxide-pyridin-3-yl)-7-[1-phenylsulfonyl-6-(4-fluorophenyl)indol-3-ylcarbonyl]-1H,3-pyrrolo[1,2-c]thiazole], the Ki came out at 0.211 µM. For `CN(C(=O)n1cc(C(=O)c2ccn3c2CSC3c2cccnc2)c2ccc(OCc3ccccc3)cc21)c1ccccc1` (stereo not drawn) [Example 20, 3-(Pyridin-3-yl)-7-(1-N-methyl-N-phenylcarbamoyl-6-phenylmethoxyindol-3-ylcarbonyl)-1H,3H-pyrrolo[1,2-c]thiazole], the Ki was 0.18 µM. With `CS(=O)(=O)n1cc(C(=O)c2ccn3c2CSC3c2cccnc2)c2ccc(-c3ccc(F)cc3)cc21` (stereo not drawn) [Example 51, 3-(Pyridin-3-yl)-7-[1-methanesulfonyl-6-(4-fluorophenyl)indol-3-ylcarbonyl]-1H,3-pyrrolo[1,2-c]thiazole], the Ki turned out to be 0.12 µM. Turning to `CNC(=O)n1cc(C(=O)c2ccn3c2CSC3c2cccnc2)c2ccc(OCc3ccccc3)cc21` (stereo not drawn) [Example 22, 3-(Pyridin-3-yl)-7-(1-N-methylcarbamoyl-6-phenylmethoxyindol-3-ylcarbonyl)-1H,3H-pyrrolo[1,2-c]thiazole], the Ki was 0.009 µM. With `CNC(=O)n1cc(C(=O)c2ccn3c2CSC3c2cccnc2)c2ccc(-c3ccc(OC)cc3)cc21` (stereo not drawn) [Example 43, 3-(Pyridin-3-yl)-7-[1-N-methylcarbamoyl-6-(4-methoxyphenyl)indol-3-ylcarbonyl]-1H,3H-pyrrolo[1,2-c]thiazole], the Ki was 0.026 µM.

With `CC(C)(C)OC(=O)n1cc(C(=O)c2ccn3c2C[S+]([O-])C3c2cccnc2)c2ccccc21` (stereo not drawn) [Example 13, 2-Oxide-3-(pyridin-3-yl)-7-(1-tert-butyloxycarbonylindol-3-ylcarbonyl)-1H,3H-pyrrolo[1,2-c]thiazole], the Ki was 2.2 µM. For `O=C(c1ccn2c1CSC2c1cccnc1)c1c[nH]c2cc(OCc3ccccc3)ccc12` (stereo not drawn) [Example 4, 3-(Pyridin-3-yl)-7-(6-phenylmethoxyindol-3-yl)carbonyl-1H,3H-pyrrolo[1,2-c]thiazole], the Ki is 0.064 µM.
